pKi: −log10 of the molar value.
Assays:
Rho kinase 1 (ROCK1) = Rho kinase 1 (ROCK1) (Homo sapiens, UniProt Q13464); assay: In vitro Rho kinase inhibitory activity assay (ADP-Glo), ROCK1; type: biochemical; settings: 10 μM ATP, 25° C., Ki by Cheng-Prusoff
Experimental: (§1) The effectiveness of compounds of the present invention to inhibit Rho kinase activity can be determined in a 10 μl assay containing 40 mM Tris pH7.5, 20 mM MgCl2 0.1 mg/ml BSA, 50 μM DTT and 2.5 μM peptide substrate (Myelin Basic Protein) using an ADP-Glo kit (Promega). Compounds were dissolved in DMSO such that the final concentration of DMSO was 1% in the assay. All reactions/incubations are performed at 25° C. Compound (2 ul) and either Rho kinase 1 or 2 (4 μl) were mixed and incubated for 30 mins. Reactions were initiated by addition of ATP (4 μl) such that the final concentration of ATP in the assay was 10 μM. After a 1 hour incubation 10 μl of ADP-Glo Reagent was added and after a further 45 minute incubation 20 ul of Kinase Detection Buffer was added and the mixture incubated for a further 30 minutes. The luminescent signal was measured on a luminometer. […] Compounds were tested in dose-response format and the inhibition of kinase activity was calculated at each concentration of compound. To determine the IC50 (concentration of compound required to inhibit 50% of the enzyme activity) data were fit to a plot of % inhibition vs Log10 compound concentration using a sigmoidal fit with a variable slope and fixing the maximum to 100% and the minimum to 0%. To determine the Ki values the Cheng-Prusoff equation was utilized (Ki=IC50/(1+[S]/Km)

Rho kinase 2 (ROCK2) = Rho kinase 2 (ROCK2) (Homo sapiens, UniProt O75116); assay: In vitro Rho kinase inhibitory activity assay (ADP-Glo), ROCK2; type: biochemical; settings: 10 μM ATP, 25° C., Ki by Cheng-Prusoff
Sequence of Rho kinase 2 (ROCK2) (O75116 whole entry): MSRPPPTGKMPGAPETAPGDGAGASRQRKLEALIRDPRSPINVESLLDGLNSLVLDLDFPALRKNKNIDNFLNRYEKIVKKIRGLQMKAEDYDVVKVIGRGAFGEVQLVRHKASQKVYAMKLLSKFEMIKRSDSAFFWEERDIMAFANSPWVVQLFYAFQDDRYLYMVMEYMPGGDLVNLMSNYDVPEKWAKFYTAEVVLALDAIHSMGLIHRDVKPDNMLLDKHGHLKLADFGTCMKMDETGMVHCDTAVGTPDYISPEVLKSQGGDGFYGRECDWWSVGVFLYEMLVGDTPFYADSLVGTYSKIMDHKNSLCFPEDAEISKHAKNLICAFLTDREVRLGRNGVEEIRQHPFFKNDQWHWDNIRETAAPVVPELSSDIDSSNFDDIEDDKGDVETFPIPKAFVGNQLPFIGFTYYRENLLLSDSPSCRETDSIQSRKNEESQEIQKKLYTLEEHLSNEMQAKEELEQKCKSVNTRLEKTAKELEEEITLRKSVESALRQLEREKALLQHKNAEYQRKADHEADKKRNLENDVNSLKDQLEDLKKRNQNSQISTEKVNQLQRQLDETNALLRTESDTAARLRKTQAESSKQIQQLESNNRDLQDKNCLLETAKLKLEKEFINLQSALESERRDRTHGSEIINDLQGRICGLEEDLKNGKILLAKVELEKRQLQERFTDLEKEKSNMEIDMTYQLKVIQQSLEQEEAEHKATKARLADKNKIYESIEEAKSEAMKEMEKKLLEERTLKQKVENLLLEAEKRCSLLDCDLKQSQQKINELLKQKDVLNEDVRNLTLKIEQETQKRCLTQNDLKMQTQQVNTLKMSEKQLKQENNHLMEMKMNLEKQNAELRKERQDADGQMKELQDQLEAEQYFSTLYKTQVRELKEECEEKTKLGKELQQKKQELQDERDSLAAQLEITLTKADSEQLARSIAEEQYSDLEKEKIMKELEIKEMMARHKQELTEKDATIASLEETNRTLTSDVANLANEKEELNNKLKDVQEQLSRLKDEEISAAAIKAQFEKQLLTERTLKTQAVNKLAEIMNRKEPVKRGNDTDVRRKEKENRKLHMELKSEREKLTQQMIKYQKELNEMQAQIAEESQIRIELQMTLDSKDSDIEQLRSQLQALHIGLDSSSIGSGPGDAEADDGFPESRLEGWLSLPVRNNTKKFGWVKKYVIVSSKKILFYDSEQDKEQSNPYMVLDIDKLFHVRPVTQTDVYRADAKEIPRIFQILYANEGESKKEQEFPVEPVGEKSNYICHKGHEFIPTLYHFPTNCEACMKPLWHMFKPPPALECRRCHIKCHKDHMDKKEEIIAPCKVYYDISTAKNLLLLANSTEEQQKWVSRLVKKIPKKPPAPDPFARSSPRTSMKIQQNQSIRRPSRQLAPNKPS
Experimental: as §1

Sequence of Rho kinase 1 (ROCK1) (Q13464 whole entry): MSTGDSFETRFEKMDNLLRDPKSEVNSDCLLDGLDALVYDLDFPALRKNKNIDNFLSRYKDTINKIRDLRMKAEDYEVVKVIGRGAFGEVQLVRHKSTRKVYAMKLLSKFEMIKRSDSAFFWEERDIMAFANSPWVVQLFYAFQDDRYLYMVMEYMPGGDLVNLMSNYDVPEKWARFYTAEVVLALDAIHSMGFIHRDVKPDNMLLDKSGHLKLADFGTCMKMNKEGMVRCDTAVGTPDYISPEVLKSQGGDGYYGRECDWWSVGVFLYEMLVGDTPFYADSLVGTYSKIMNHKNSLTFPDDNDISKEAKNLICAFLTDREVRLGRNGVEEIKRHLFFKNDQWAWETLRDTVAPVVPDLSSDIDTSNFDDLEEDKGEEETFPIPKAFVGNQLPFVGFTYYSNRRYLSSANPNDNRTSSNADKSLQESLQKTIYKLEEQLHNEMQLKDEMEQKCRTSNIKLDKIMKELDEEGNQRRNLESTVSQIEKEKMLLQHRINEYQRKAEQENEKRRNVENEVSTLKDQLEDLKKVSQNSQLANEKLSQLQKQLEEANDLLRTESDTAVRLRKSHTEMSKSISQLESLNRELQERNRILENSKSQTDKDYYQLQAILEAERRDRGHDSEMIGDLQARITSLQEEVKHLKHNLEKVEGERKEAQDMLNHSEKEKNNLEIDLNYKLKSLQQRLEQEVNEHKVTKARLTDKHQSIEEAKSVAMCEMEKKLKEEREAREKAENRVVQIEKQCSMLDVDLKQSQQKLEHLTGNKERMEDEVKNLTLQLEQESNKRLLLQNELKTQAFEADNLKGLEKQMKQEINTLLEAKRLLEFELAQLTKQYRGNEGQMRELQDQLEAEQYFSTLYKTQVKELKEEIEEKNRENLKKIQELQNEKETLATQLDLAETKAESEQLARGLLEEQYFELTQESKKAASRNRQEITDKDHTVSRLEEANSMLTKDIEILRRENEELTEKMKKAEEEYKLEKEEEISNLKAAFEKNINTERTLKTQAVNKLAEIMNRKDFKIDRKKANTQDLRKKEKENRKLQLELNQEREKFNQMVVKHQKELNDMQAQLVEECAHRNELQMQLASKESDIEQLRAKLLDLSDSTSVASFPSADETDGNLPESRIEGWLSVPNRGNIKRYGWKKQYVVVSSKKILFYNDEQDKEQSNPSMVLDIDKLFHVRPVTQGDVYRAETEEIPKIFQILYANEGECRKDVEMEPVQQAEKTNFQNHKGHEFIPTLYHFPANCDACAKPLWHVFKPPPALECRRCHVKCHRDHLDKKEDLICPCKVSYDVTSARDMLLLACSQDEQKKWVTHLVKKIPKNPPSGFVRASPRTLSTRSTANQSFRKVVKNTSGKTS

pKi (Rho kinase 1 (ROCK1)) | pKi (Rho kinase 2 (ROCK2)) | SMILES
> 8.52 | > 8.52 | Cc1c[nH]c2nccc(Oc3ccc(C(N)CC(=O)N4CCN(Cc5ccccc5)CC4)cc3)c12 (centres unmarked) [Example 7, 3-amino-1-(4-benzylpiperazin-1-yl)-3-(4-((3-methyl-1H-pyrrolo[2,3-b]pyridin-4-yl)oxy)phenyl)propan-1-one]
> 8.52 | > 8.52 | Cc1c[nH]c2nccc(Oc3ccc(CC(CN)C(=O)NC4CCCCC4)cc3F)c12 (centres unmarked) [Example 28, 3-amino-N-cyclohexyl-2-(3-fluoro-4-((3-methyl-1H-pyrrolo[2,3-b]pyridin-4-yl)oxy)benzyl)propanamide]
> 8.52 | > 8.52 | Cc1c[nH]c2nccc(Oc3ccc(CC(CN)C(=O)N4C[C@@H]5C[C@H]4CN5C)cc3F)c12 (stereo partly drawn) [Example 4, 3-amino-2-(3-fluoro-4-((3-methyl-1H-pyrrolo[2,3-b]pyridin-4-yl)oxy)benzyl)-1-((1S,4S)-5-methyl-2,5-diazabicyclo[2.2.1]heptan-2-yl)propan-1-one]
7.52 to 8.52 | 7.52 to 8.52 | NCC(Cc1ccc(Oc2ccnc3[nH]ccc23)cc1)C(=O)NC1CCOCC1 (centres unmarked) [Example 34, 2-(4-((1H-pyrrolo[2,3-b]pyridin-4-yl)oxy)benzyl)-3-amino-N-(tetrahydro-2H-pyran-4-yl)propanamide]
> 8.52 | > 8.52 | Cc1c[nH]c2nccc(Oc3ccc(CC(CN)C(=O)N4CCN(Cc5ccccc5)CC4)cc3F)c12 (centres unmarked) [Example 29, 3-amino-1-(4-benzylpiperazin-1-yl)-2-(3-fluoro-4-((3-methyl-1H-pyrrolo[2,3-b]pyridin-4-yl)oxy)benzyl)propan-1-one]
> 8.52 | > 8.52 | Cc1c[nH]c2nccc(Oc3ccc(CC(CN)C(=O)N4CCN(Cc5ccccc5)CC4)cc3)c12 (centres unmarked) [Example 30, 3-amino-1-(4-benzylpiperazin-1-yl)-2-(4-((3-methyl-1H-pyrrolo[2,3-b]pyridin-4-yl)oxy)benzyl)propan-1-one]
7.52 to 8.52 | 7.52 to 8.52 | Cc1c[nH]c2nccc(Oc3ccc([C@H]4CNC[C@@H]4C(=O)NCc4ccccc4)cc3)c12 (single isomer, unassigned) [Example 17B]
7.52 to 8.52 | 7.52 to 8.52 | Cc1c[nH]c2nccc(Oc3ccc(CC(CN)C(=O)N4C[C@@H]5C[C@H]4CN5C)cc3F)c12 (single isomer, unassigned) [Example 4A]
7.52 to 8.52 | 7.52 to 8.52 | Cc1c[nH]c2nccc(Oc3ccc([C@H]4CCN[C@@H]4C(=O)NCCCN(C)C)cc3)c12 (racemic) [Example 26, rac-(2R,3S)-N-(3-(dimethylamino)propyl)-3-(4-((3-methyl-1H-pyrrolo[2,3-b]pyridin-4-yl)oxy)phenyl)pyrrolidine-2-carboxamide]
7.52 to 8.52 | > 8.52 | CN1C[C@@H]2C[C@H]1CN2C(=O)C(CN)Cc1ccc(Oc2ccnc3[nH]cc(C#N)c23)cc1 (stereo partly drawn) [Example 48, 4-(4-(2-(aminomethyl)-3-((1S,4S)-5-methyl-2,5-diazabicyclo[2.2.1]heptan-2-yl)-3-oxopropyl)phenoxy)-1H-pyrrolo[2,3-b]pyridine-3-carbonitrile]
< 7.52 | < 7.52 | NC(C(=O)Nc1ccc(C(F)(F)F)cc1)c1ccc(Oc2ccnc3[nH]ccc23)cc1 (centres unmarked) [Example 10, 2-(4-((1H-pyrrolo[2,3-b]pyridin-4-yl)oxy)phenyl)-2-amino-N-(4-(trifluoromethyl)phenyl)acetamide]
7.52 to 8.52 | 7.52 to 8.52 | Cc1c[nH]c2nccc(Oc3ccc(CC(CN)C(=O)N4CCN(Cc5ccccc5)CC4)cc3F)c12 (single isomer, unassigned) [Example 29A, 3-amino-1-(4-benzylpiperazin-1-yl)-2-(3-fluoro-4-((3-methyl-1H-pyrrolo[2,3-b]pyridin-4-yl)oxy)benzyl)propan-l-one]
< 7.52 | < 7.52 | Cc1c[nH]c2nccc(Oc3ccc(C4CC(=O)N(CCc5ccncc5)CN4)cc3)c12 (centres unmarked) [Example 40, 6-(4-((3-methyl-1H-pyrrolo[2,3-b]pyridin-4-yl)oxy)phenyl)-3-(2-(pyridin-4-yl)ethyl)tetrahydropyrimidin-4(1H)-one]
< 7.52 | < 7.52 | Cc1c[nH]c2nccc(Oc3ccc(CC4CNCN(CCc5ccncc5)C4=O)cc3F)c12 (centres unmarked) [Example 43, 5-(3-fluoro-4-((3-methyl-1H-pyrrolo[2,3-b]pyridin-4-yl)oxy)benzyl)-3-(2-(pyridin-4-yl)ethyl)tetrahydropyrimidin-4(1H)-one]
7.52 to 8.52 | > 8.52 | N#Cc1c[nH]c2nccc(Oc3ccc(CC(CN)C(=O)N4CCN(Cc5ccccn5)CC4)cc3)c12 (centres unmarked) [Example 49, 4-(4-(2-(aminomethyl)-3-oxo-3-(4-(pyridin-2-ylmethyl)piperazin-1-yl)propyl)phenoxy)-1H-pyrrolo[2,3-b]pyridine-3-carbonitrile]
> 8.52 | > 8.52 | CNCC(Cc1ccc(Oc2ccnc3[nH]cc(C)c23)cc1)C(=O)N1CCN(Cc2ccccc2)CC1 (centres unmarked) [Example 36, 1-(4-benzylpiperazin-1-yl)-2-(4-((3-methyl-1H-pyrrolo[2,3-b]pyridin-4-yl)oxy)benzyl)-3-(methylamino)propan-1-one]
> 8.52 | > 8.52 | Cc1c[nH]c2nccc(Oc3ccc(CC(CN)C(=O)N4CCN(Cc5ccccn5)CC4)cc3F)c12 (centres unmarked) [Example 5, 3-amino-2-(3-fluoro-4-((3-methyl-1H-pyrrolo[2,3-b]pyridin-4-yl)oxy)benzyl)-1-(4-(pyridin-2-ylmethyl)piperazin-1-yl)propan-1-one]
< 7.52 | < 7.52 | Cc1cc2c(Oc3ccc(CC(CN)C(=O)N4CCN(Cc5ccccc5)CC4)cc3)ccnc2[nH]1 (centres unmarked) [Example 6, 3-amino-1-(4-benzylpiperazin-1-yl)-2-(4-((2-methyl-1H-pyrrolo[2,3-b]pyridin-4-yl)oxy)benzyl)propan-1-one]
> 8.52 | > 8.52 | Cc1c[nH]c2nccc(Oc3ccc(CC(CN)C(=O)N4CCN(C)CC4)cc3)c12 (centres unmarked) [Example 1, 3-amino-2-(4-((3-methyl-1H-pyrrolo[2,3-b]pyridin-4-yl)oxy)benzyl)-1-(4-methylpiperazin-1-yl)propan-1-one]
7.52 to 8.52 | > 8.52 | Cc1c[nH]c2nccc(Oc3ccc([C@@H]4CN(C)C[C@H]4C(=O)NCc4ccccc4)cc3)c12 (racemic) [Example 50, rac-(3R,4S)-N-benzyl-1-methyl-4-(4-((3-methyl-1H-pyrrolo[2,3-b]pyridin-4-yl)oxy)phenyl)pyrrolidine-3-carboxamide]
> 8.52 | > 8.52 | Cc1c[nH]c2nccc(Oc3ccc(CC(CN)C(=O)N4CCN(Cc5ccccn5)CC4)cc3F)c12 (single isomer, unassigned) [Example 5B, 3-amino-2-(3-fluoro-4-((3-methyl-1H-pyrrolo[2,3-b]pyridin-4-yl)oxy)benzyl)-1-(4-(pyridin-2-ylmethyl)piperazin-1-yl)propan-1-one]
> 8.52 | > 8.52 | Cc1c[nH]c2nccc(Oc3ccc(CC(CN(C)C)C(=O)N4CCN(Cc5ccccc5)CC4)cc3)c12 (centres unmarked) [Example 37, 1-(4-benzylpiperazin-1-yl)-3-(dimethylamino)-2-(4-((3-methyl-1H-pyrrolo[2,3-b]pyridin-4-yl)oxy)benzyl)propan-1-one]
7.52 to 8.52 | 7.52 to 8.52 | Cc1c[nH]c2nccc(Oc3ccc(C(CN)CC(=O)N4CCN(C5CC5)CC4)cc3)c12 (centres unmarked) [Example 16, 4-amino-1-(4-cyclopropylpiperazin-1-yl)-3-(4-((3-methyl-1H-pyrrolo[2,3-b]pyridin-4-yl)oxy)phenyl)butan-1-one]
7.52 to 8.52 | 7.52 to 8.52 | NCC(Cc1ccc(Oc2ccnc3[nH]ccc23)cc1)C(=O)NC1CCCCC1 (centres unmarked) [Example 33, 2-(4-((1H-pyrrolo[2,3-b]pyridin-4-yl)oxy)benzyl)-3-amino-N-cyclohexylpropanamide]
< 7.52 | < 7.52 | NC(C(=O)NC1CCCCC1)c1ccc(Oc2ccnc3[nH]ccc23)cc1 (centres unmarked) [Example 8, 2-(4-((1H-pyrrolo[2,3-b]pyridin-4-yl)oxy)phenyl)-2-amino-N-cyclohexylacetamide]
7.52 to 8.52 | 7.52 to 8.52 | CN(C)CCCN1CNCC(Cc2ccc(Oc3ccnc4[nH]cc(C#N)c34)cc2)C1=O (centres unmarked) [Example 45, 4-(4-((1-(3-(dimethylamino)propyl)-6-oxohexahydropyrimidin-5-yl)methyl)phenoxy)-1H-pyrrolo[2,3-b]pyridine-3-carbonitrile]
> 8.52 | > 8.52 | Cc1c[nH]c2nccc(Oc3ccc(CC(CN)C(=O)NC4CCN(C)CC4)cc3F)c12 (centres unmarked) [Example 3, 3-amino-2-(3-fluoro-4-((3-methyl-1H-pyrrolo[2,3-b]pyridin-4-yl)oxy)benzyl)-N-(1-methylpiperidin-4-yl)propanamide]
> 8.52 | > 8.52 | CN1CCC(NC(=O)C(CN)Cc2ccc(Oc3ccnc4[nH]cc(C#N)c34)cc2)CC1 (centres unmarked) [Example 46, 3-amino-2-(4-((3-cyano-1H-pyrrolo[2,3-b]pyridin-4-yl)oxy)benzyl)-N-(1-methylpiperidin-4-yl)propanamide]
